Assay results published in patent US8440638B2, “Compositions and methods for modulating calcium flux, glucose homeostasis and apoptosis” (Wisconsin Alumni Research Foundation, priority 2004, dated 2013).
One block for each molecule: values may come before it.

Assays:
[1] = tested on: TRPM2-expressing HEK-293 cells; test: Cell viability assay (calcein fluorescence), tet-inducible TRPM2 HEK-293 cells; format: cell-based
Method: Shown are HEK-293 cells (closed diamond) and HEK-293 cells stably transfected with a tet-controlled TRPM2 construct in the presence (open squares) or absence of (open diamonds) tetracycline. […] TRPM2-expressing HEK-293 cells were grown in complete DMEM media and 1 μg/ml tetracycline until 80-90% confluent. One set of cells were re-fed with the same complete media (closed diamonds) and the other set of cells were rinsed with PBS and fed with modified media containing 1 μg/ml tetracycline, 5 mM EGTA and without calcium chloride (open squares). […] HEK-293 (close diamond) and TRPM2 expressing HEK-293 cells in the absence (open diamond) or presence of (closed square) tetracycline were exposed to 0-10 μg/ml cycloheximide for 16 h. Cell viability was determined as described in (a).
TRPM2-expressing HEK-293 cells were exposed to 0-50 μM puromycin for 16 h in the presence (open diamond) or absence (closed diamond) of 500 μM nicotinamide. […] TRPM2-expressing HEK-293 cells were exposed to 0-50 μM puromycin for 16 h in the presence (open diamond) or absence (closed diamond) of 1.5 mM 3-aminobenzamide. Cell survival was determined as described in (a).
HEK-293 and tetracycline (tet)-inducible HEK-293 TRPM2-expressing cells (23) were cultured in DMEM and 10% FBS at 37° C., 5% CO2. Media used to culture tet-inducible HEK-293 cells was supplemented with blasticidin (5 μg ml^−1; Invitrogen) and zeocin (0.4 mg/ml; Invitrogen). To induce expression of TRPM2 in recombinant HEK-293 cells, tetracycline was added to the media at 1 μg ml^−1 (Invitrogen) 24 h prior to experiments. The CRI-G1 rat β-islet tumor cell line was obtained from EACC and cultured in DMEM, 10% FBS and 2 mM glutamine.
HEK-293, tet-inducible HEK-293, and CRI-G1 cells were seeded into 6 well plates at a density of 500,000 cells per well. When cells were 50-70% confluent, puromycin was added to the media at various concentrations for 16 hours. Cell monolayers were rinsed with PBS, after which 0.5 ml of 2 μM calcein in PBS was added directly to the well for 10-20 minutes. Calcein is retained in living, but not dead cells, where it undergoes catalytic conversion into a fluorescent compound Fluorescence in each well was measured in a microplate reader using excitation and emission filters at 485/530 nm, respectively.

CRI-G1 cells = test: Cell viability assay (calcein fluorescence), CRI-G1 cells; format: cell-based, rat; conditions: 0.5-20 mM nicotinamide, 20 μM puromycin, 16 h
Method: FIG. 4 a) OAADPr gates the endogenous TRPM2 channel in CRI-G1 cells. Left panel: Evolution of currents in CRI-G1 cells in the absence (grey squares) or presence (black circles) of OAADPr (120-250 μM). Shown are average leak subtracted currents from n=3 cells for each condition. Right panel: Representative leak subtracted whole cell I/V curves for peak currents observed in the absence (grey line) and presence (black line) of OAADPr. For the above measurements, CRI-G1 cells were maintained in the whole cell patch clamp configuration as previously described for HEK-293 cells (44). b) Puromycin leads to cell death in CRI-G1 cells. CRI-G1 cells were treated with 0-40 μM puromycin for 16 h. Cell viability was assessed by measuring fluorescence of calcein in live cells. Data obtained from 4 independent experiments were plotted as a percent change in fluorescence compared to those of untreated cells set at a 100%. Error bars indicate the standard deviation from the mean. (Inset) Nicotinamide rescues puromycin-induced death in CRI-G1 cells. […] Cell viability was assessed 16 h later as described above. […] Calcein is retained in living, but not dead cells, where it undergoes catalytic conversion into a fluorescent compound Fluorescence in each well was measured in a microplate reader using excitation and emission filters at 485/530 nm, respectively.

Sir2 homologs = test: NAD+-dependent histone deacetylase activity of HEK-293 protein extracts; format: biochemical; conditions: data not shown
[2] = tested on: insulin-producing β-cells; conditions: prophylactic treatment; alloxan and streptozotocin models (ref. 48); cited from earlier work
TRPM2 channel = target: T1, TRPM2 channel (Homo sapiens, UniProt O94759); test: Whole cell patch clamp, TRPM2 channel gating in tet-induced TRPM2-expressing HEK-293 cells; format: cell-based; conditions: OAADPr in patch pipette solution; similar kinetics and dose dependence to ADP-ribose
T1 construct: expressed in transfected cells; host or cells: tetracycline-inducible HEK-293
Method: Shown is the development of whole cell currents over time in TRPM2-expressing HEK-293 cells. Bath solution was standard ringer's, and pipette solution was Cs-based and included 10 mM EGTA to buffer intracellular Ca^2+ to 10 nM. The patch pipette contained various concentrations of (FIG. 1a) ADPr, (FIG. 1b) OAADPr (FIG. 1c) OAADPr and puromycin as indicated in the figure. FIG. 1d.) Cytoplasmic OAADPr esterase activity is inhibited by puromycin. 200 μM O-[^3H]AADPr and 0-100 μM puromycin were added to cytoplasmic HEK-293 extract for 30 min. Percent hydrolysis of O-[^3H]AADPr to [^3H]acetate was measured as described hereinbelow. FIG. 1e.) Nuclear OAADPr acetyltransferase activity is not inhibited by puromycin. HEK-293 nuclear extract was incubated with 200 μM O-[^3H]AADPr in the presence or absence of 100 μM puromycin for 60 min. The reactions were quenched and resolved by HPLC. The radioactivity in collected fractions was determined by liquid scintillation counting. FIGS. 1f-g.) In vivo detection of OAADPr. Mass spectrum of HEK-293 generated OAADPr (peak m/z of 602.0894; the theoretical m/z for OAADPr is 602.0895) after puromycin treatment, with authentic [^13C]-OAADPr (peak m/z of 603.0851 and isotopic distribution of 604.0878 and 605.0928) as a standard. Peak 599.3691 is from the matrix.
Patch clamp electrophysiology was performed as previously described (23). Briefly, cells were patch clamped in the whole cell configuration at 25° C. using pipettes with resistances ranging from 2-3 MOhms. Currents were recorded on an EPC9 patch clamp amplifier with automatic capacitance compensation using a protocol generating a 50 msec voltage ramp from −100 to +100 mv every two seconds at a holding potential of 0 mv (appropriately corrected for liquid junction potential). Bath solution included 150 mM NaCl, 2.8 mM KCl, 5 mM CsCl, 1 mM CaCl2, 2 mM MgCl2, and 10 mM Hepes (pH 7.2). Pipette solution included 135 mM CsGlutamate, 1 mM MgCl2, 8 mM NaCl, 10 mM Hepes (pH 7.2), and 10 mM EGTA. […]

[3] = Spontaneous breakdown of OAADPr in the patch pipette; format: physicochemical; conditions: multiple experiments
Method: Patch clamp electrophysiology was performed as previously described (23). Briefly, cells were patch clamped in the whole cell configuration at 25° C. using pipettes with resistances ranging from 2-3 MOhms. Currents were recorded on an EPC9 patch clamp amplifier with automatic capacitance compensation using a protocol generating a 50 msec voltage ramp from −100 to +100 mv every two seconds at a holding potential of 0 mv (appropriately corrected for liquid junction potential). Bath solution included 150 mM NaCl, 2.8 mM KCl, 5 mM CsCl, 1 mM CaCl2, 2 mM MgCl2, and 10 mM Hepes (pH 7.2). Pipette solution included 135 mM CsGlutamate, 1 mM MgCl2, 8 mM NaCl, 10 mM Hepes (pH 7.2), and 10 mM EGTA. For low-resolution presentation of current development over the course of the experiment, instantaneous currents at −80 mv were extracted from each ramp and plotted versus time.

endogenous TRPM2 channel = target: T2, endogenous TRPM2 channel (Rattus norvegicus, UniProt E9PTA2); test: Whole cell patch clamp, endogenous TRPM2 channel in CRI-G1 cells; format: cell-based; conditions: OAADPr 120-250 μM in patch pipette, n=3 cells
T2 construct: direct OAADPr-mediated gating of endogenous TRPM2 channels in CRI-G1 cells; endogenous in cells; host or cells: CRI-G1 rat beta-islet tumor cell line
Method: FIG. 4 a) OAADPr gates the endogenous TRPM2 channel in CRI-G1 cells. Left panel: Evolution of currents in CRI-G1 cells in the absence (grey squares) or presence (black circles) of OAADPr (120-250 μM). Shown are average leak subtracted currents from n=3 cells for each condition. Right panel: Representative leak subtracted whole cell I/V curves for peak currents observed in the absence (grey line) and presence (black line) of OAADPr. For the above measurements, CRI-G1 cells were maintained in the whole cell patch clamp configuration as previously described for HEK-293 cells (44). b) Puromycin leads to cell death in CRI-G1 cells. CRI-G1 cells were treated with 0-40 μM puromycin for 16 h. Cell viability was assessed by measuring fluorescence of calcein in live cells. Data obtained from 4 independent experiments were plotted as a percent change in fluorescence compared to those of untreated cells set at a 100%. Error bars indicate the standard deviation from the mean. […] Cell viability was assessed 16 h later as described above. […]
Patch clamp electrophysiology was performed as previously described (23). […] Currents were recorded on an EPC9 patch clamp amplifier with automatic capacitance compensation using a protocol generating a 50 msec voltage ramp from −100 to +100 mv every two seconds at a holding potential of 0 mv (appropriately corrected for liquid junction potential). […]

T1 sequence (O94759 whole entry): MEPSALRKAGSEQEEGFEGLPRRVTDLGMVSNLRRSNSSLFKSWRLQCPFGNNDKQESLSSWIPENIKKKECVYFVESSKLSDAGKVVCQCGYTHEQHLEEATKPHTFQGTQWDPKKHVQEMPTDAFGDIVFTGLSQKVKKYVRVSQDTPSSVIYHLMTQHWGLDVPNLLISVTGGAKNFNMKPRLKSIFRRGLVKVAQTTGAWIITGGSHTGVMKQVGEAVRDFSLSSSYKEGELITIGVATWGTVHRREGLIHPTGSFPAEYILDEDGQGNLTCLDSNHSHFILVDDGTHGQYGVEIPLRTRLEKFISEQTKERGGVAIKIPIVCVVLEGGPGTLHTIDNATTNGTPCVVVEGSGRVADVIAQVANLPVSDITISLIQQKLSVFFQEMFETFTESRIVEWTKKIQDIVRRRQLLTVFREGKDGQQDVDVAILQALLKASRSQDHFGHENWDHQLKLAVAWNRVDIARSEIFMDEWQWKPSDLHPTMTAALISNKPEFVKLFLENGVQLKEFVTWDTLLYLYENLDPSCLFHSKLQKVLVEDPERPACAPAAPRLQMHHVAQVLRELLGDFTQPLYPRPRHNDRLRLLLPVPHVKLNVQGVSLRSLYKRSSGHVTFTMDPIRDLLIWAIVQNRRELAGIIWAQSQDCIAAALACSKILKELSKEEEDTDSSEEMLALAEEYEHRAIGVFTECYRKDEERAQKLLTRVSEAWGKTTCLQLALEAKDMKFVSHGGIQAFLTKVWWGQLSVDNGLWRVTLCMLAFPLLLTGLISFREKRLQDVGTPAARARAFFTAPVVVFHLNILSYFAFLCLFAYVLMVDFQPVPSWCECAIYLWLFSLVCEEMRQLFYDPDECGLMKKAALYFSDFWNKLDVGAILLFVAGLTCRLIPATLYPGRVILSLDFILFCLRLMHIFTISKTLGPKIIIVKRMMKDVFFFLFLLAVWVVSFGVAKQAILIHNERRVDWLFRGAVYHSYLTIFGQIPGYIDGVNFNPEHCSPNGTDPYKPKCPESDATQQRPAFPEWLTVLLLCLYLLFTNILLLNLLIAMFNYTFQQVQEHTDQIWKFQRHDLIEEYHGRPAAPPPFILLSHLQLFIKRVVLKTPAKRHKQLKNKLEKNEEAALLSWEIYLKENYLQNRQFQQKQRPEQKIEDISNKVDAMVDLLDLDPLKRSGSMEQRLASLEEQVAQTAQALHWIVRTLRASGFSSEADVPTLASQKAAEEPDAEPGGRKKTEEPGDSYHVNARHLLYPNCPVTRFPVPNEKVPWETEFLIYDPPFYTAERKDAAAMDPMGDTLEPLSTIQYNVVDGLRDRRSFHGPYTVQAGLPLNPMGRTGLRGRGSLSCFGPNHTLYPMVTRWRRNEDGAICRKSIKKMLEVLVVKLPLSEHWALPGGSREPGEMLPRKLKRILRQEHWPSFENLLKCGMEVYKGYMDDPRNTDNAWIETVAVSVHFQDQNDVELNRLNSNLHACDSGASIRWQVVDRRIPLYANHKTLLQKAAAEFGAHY
T2 sequence (E9PTA2 whole entry): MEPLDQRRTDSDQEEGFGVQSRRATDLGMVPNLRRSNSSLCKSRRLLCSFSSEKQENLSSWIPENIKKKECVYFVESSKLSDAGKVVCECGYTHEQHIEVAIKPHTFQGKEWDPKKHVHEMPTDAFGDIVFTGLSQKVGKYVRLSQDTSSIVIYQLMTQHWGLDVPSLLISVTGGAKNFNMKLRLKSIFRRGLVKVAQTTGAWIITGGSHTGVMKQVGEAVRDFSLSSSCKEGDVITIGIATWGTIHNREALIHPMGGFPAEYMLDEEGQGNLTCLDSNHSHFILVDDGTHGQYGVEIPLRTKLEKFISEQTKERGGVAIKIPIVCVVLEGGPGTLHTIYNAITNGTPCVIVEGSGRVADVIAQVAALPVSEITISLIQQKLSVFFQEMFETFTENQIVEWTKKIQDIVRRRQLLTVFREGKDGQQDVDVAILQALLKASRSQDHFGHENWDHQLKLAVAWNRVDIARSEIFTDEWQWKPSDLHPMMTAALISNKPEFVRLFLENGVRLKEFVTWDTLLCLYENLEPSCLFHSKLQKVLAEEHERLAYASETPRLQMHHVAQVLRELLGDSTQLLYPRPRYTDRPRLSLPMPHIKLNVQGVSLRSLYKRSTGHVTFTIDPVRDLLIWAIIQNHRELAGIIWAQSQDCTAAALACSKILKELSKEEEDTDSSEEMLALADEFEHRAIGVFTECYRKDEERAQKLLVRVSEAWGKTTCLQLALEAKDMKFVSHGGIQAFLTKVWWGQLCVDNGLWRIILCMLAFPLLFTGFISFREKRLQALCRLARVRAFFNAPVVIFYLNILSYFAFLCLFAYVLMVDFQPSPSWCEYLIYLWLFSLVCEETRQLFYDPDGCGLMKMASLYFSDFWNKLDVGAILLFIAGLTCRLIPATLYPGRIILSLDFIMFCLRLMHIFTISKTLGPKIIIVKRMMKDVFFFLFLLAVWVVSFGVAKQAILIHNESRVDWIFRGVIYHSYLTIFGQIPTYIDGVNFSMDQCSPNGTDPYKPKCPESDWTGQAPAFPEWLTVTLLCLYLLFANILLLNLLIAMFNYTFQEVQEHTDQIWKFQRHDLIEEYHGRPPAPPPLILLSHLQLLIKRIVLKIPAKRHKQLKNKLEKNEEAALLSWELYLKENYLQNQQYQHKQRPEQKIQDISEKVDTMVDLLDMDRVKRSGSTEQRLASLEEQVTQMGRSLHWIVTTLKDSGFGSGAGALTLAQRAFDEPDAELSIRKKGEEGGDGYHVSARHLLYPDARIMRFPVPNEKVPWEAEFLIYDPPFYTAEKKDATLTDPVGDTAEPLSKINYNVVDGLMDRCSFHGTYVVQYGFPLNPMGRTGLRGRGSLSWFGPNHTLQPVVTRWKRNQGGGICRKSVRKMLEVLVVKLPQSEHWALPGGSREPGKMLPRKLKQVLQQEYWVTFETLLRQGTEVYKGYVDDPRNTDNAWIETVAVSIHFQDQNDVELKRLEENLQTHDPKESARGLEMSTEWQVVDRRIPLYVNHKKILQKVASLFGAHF

Molecule: C[C@@H]1C[C@@H]([C@H](O)CC2CC(=O)NC(=O)C2)C(=O)[C@@H](C)C1 [cycloheximide]
- sensitivity of TRPM2 expressing cells to cycloheximide vs cells not over-expressing the channel ([1]; 0-10 μg/ml cycloheximide, 16 h): no significant increased sensitivity

- NAD+-dependent histone deacetylase activity of protein extracts (Sir2 homologs): inhibited
Molecule: NC(=O)c1cccnc1 [nicotinamide]
- effect on puromycin-induced death of CRI-G1 cells (CRI-G1 cells): blocked
- protection from puromycin-induced cell death at high puromycin ([1]; 500 μM nicotinamide, 50 μM puromycin): suppressed
- protection from puromycin-induced cell death ([1]; 500 μM nicotinamide, up to 20 μM puromycin, 16 h): completely protect
- development of diabetes [2]: suppress the development of diabetes

Molecule: NC(=O)c1cccc(N)c1 [3-aminobenzamide]
- effect on puromycin-induced cell death ([1]; 1.5 mM 3-aminobenzamide, 0-50 μM puromycin, 16 h): no effect

- TRPM2 gating in whole cell recordings (TRPM2 channel): induces TRPM2 gating
- spontaneous breakdown of OAADPr to ADPr in the patch pipette [3]: 5-10%
- average currents induced (endogenous TRPM2 channel): ~2 nA
Molecule: O-acetyl-ADP ribose [OAADPr]
